Assay results as given in US7772271B2 (priority 2004, dated 2010).

Row | Compound | melting point [°C]
1 | CCn1c(-c2ccc(N3CCCS3(=O)=O)cc2)c(C#N)c2ccc(OCCOC)cc21 [Compound 1332] | 213 to 215
2 | CCn1c(-c2ccc(N3CCCS3(=O)=O)cc2)c(C#N)c2ccc(OCCOCCOC)cc21 [Compound 1333] | 160 to 164
3 | N#Cc1c(-c2ccc(NS(=O)(=O)C3CC3)cc2)n(CC2CCCO2)c2cc(OC(F)F)ccc12 (stereo not drawn) [Compound 1335] | 179 to 180
4 | CC(C)S(=O)(=O)Nc1ccc(-c2c(C#N)c3ccc(OC(F)F)cc3n2CC2CCCO2)cc1 (stereo not drawn) [Compound 1336] | 173 to 176
5 | CCOc1ccc(-c2c(C#N)c3ccc(N4CCN(C)CC4)cc3n2CC)cc1 [Compound 1338] | 186 to 187
6 | CC(C)n1c(-c2ccc(N(S(C)(=O)=O)S(C)(=O)=O)cc2)c(C#N)c2ccc(OC(F)F)cc21 [Compound 1342] | 232 to 234
7 | CCn1c(-c2ccc(NS(=O)(=O)CC)cc2)c(C#N)c2ccc(C(=O)O)cc21 [Compound 1344] | 294 to 296
8 | CCN(CC)C(=O)Oc1ccc(-c2c(C#N)c3ccc(OC)cc3n2CC)cc1 [Compound 1348] | 134.2 to 139.5
9 | C=COC(=O)Nc1cccc(-c2c(C#N)c3ccc(OCC)cc3n2C2CCC2)c1 [Compound 1355] | 163 to 164
10 | CCn1c(-c2ccc(N3CCCS3(=O)=O)cc2)c(C#N)c2ccc(N3CCN(S(=O)(=O)C4CC4)CC3)cc21 [Compound 1357] | 278 to 280
11 | CCn1c(-c2ccc(N3CCCS3(=O)=O)cc2)c(C#N)c2ccc(N3CCN(C(=O)c4ccccc4)CC3)cc21 [Compound 1358] | 260 to 261
12 | CCn1c(-c2ccc(NS(=O)(=O)CC)cc2)c(C#N)c2ccc(C(=O)N3CCOCC3)cc21 [Compound 1361] | 238 to 241
13 | CCn1c(-c2ccc(NS(=O)(=O)CC)cc2)c(C#N)c2ccc(C(=O)N3CCN(c4ccccc4)CC3)cc21 [Compound 1362] | 236 to 238
14 | CCn1c(-c2ccc(NS(=O)(=O)CC)cc2)c(C#N)c2ccc(C(=O)N3CCCC3)cc21 [Compound 1363] | 168 to 171
15 | CCn1c(-c2ccc(N)cc2)c(C#N)c2ccc(OCCOC)cc21 [Compound 1366] | 168 to 169
16 | CCn1c(-c2ccc(NC(=O)OC)cc2)c(C#N)c2ccc(OCCOC)cc21 [Compound 1367] | 191 to 194
17 | CCOC(=O)Nc1ccc(-c2c(C#N)c3ccc(OCCOC)cc3n2CC)cc1 [Compound 1368] | 175 to 177
18 | CCCOC(=O)Nc1ccc(-c2c(C#N)c3ccc(OCCOC)cc3n2CC)cc1 [Compound 1369] | 154 to 156
19 | CCn1c(-c2ccc(NC(=O)OCC(C)C)cc2)c(C#N)c2ccc(OCCOC)cc21 [Compound 1370] | 145 to 148
20 | CCn1c(-c2ccc(NC(=O)OCCF)cc2)c(C#N)c2ccc(OCCOC)cc21 [Compound 1371] | 166 to 168
21 | CCn1c(-c2ccc(NC(=O)OCc3ccccc3)cc2)c(C#N)c2ccc(OCCOC)cc21 [Compound 1372] | 107 to 109
22 | CCn1c(-c2ccc(NC(=O)OCCCl)cc2)c(C#N)c2ccc(OCCOC)cc21 [Compound 1373] | 148 to 151
23 | CCn1c(-c2cccc(NC(=O)N3CCN(C)CC3)c2)c(C#N)c2ccc(OC)cc21 [Compound 1375] | 108 to 120

Row | Compound | melting point [°C]
24 | CCN(CC)C(=O)Nc1ccc(-c2c(C#N)c3ccc(OC)cc3n2CC)cc1 [Compound 1376] | 165 to 167
25 | CCN(CC)C(=O)Nc1ccc(-c2c(C#N)c3ccc(OCCOC)cc3n2CC)cc1 [Compound 1378] | 147 to 150
26 | CCn1c(-c2ccc(NC(=O)N3CCC(C)CC3)cc2)c(C#N)c2ccc(OCCOC)cc21 [Compound 1379] | 152 to 155
27 | CCn1c(-c2ccc(NC(=O)N3CCCCC3)cc2)c(C#N)c2ccc(OCCOC)cc21 [Compound 1380] | 216 to 218
28 | CCn1c(-c2ccc(NC(=O)N3CCCC3)cc2)c(C#N)c2ccc(OCCOC)cc21 [Compound 1381] | 151 to 154
29 | CCn1c(-c2ccc(NC(=O)N(CCOC)CCOC)cc2)c(C#N)c2ccc(OCCOC)cc21 [Compound 1382] | 110 to 114
30 | CCn1c(-c2ccc(NC(=O)N(C)Cc3ccccc3)cc2)c(C#N)c2ccc(OCCOC)cc21 [Compound 1384] | 175 to 176
31 | CCn1c(-c2ccc(OC(=O)N(C)CCOC)cc2)c(C#N)c2ccc(OC)cc21 [Compound 1385] | 122 to 127
32 | CCCn1c(-c2ccc(NC(=O)N(CC)CC)cc2)c(C#N)c2ccc(OC)cc21 [Compound 1386] | 213 to 214
33 | CCCNC(=O)Nc1ccc(-c2c(C#N)c3ccc(O[Si](C)(C)C(C)(C)C)cc3n2CC)cc1 [Compound 1387] | 65 to 70
34 | CCCn1c(-c2ccc(NC(=O)NCc3ccco3)cc2)c(C#N)c2ccc(OC)cc21 [Compound 1388] | 161 to 164
35 | CCn1c(-c2ccc(NC(=O)OC(C)(C)C)cc2)c(C#N)c2ccc(N3CCN(CC4CC4)CC3)cc21 [Compound 1389] | 171 to 173
36 | CCOc1ccc2c(C#N)c(-c3ccc(NC(=O)NCCN4CCOCC4)cc3)n(C3CCC3)c2c1 [Compound 1390] | 217 to 223
37 | CCOc1ccc2c(C#N)c(-c3ccc(NC(=O)NCC(C)O)cc3)n(C3CCC3)c2c1 (stereo not drawn) [Compound 1391] | 195 to 200
38 | CCOc1ccc2c(C#N)c(-c3ccc(NC(=O)NCCc4ccccn4)cc3)n(C3CCC3)c2c1 [Compound 1392] | 193 to 197
39 | CCn1c(-c2ccc(NC(=O)C3CC3)cc2)c(C#N)c2ccc(OCCNCCN3CCOCC3)cc21 [Compound 1394] | 96.5 to 100.6
40 | CCn1c(-c2ccc(NC(=O)C3CC3)cc2)c(C#N)c2ccc(OCCN3CCCN(C)CC3)cc21 [Compound 1395] | 95.9 to 99
41 | CCOc1ccc2c(C#N)c(-c3ccc(NC(=O)NCc4ccco4)cc3)n(C3CCC3)c2c1 [Compound 1396] | 192 to 198
42 | COCCOc1ccc2c(C#N)c(-c3ccc(NC(=O)OC(C)C)cc3)n(C3CCC3)c2c1 [Compound 1399] | 125 to 126
43 | COCCOc1ccc2c(C#N)c(-c3ccc(NC(=O)OC4CCCC4)cc3)n(C3CCC3)c2c1 [Compound 1400] | 168 to 169
44 | COCCOc1ccc2c(C#N)c(-c3ccc(NC(=O)Oc4ccc(Cl)cc4)cc3)n(C3CCC3)c2c1 [Compound 1401] | 182 to 183
45 | COCCOc1ccc2c(C#N)c(-c3ccc(NC(=O)OCc4ccccc4)cc3)n(C3CCC3)c2c1 [Compound 1402] | 144 to 145
46 | CCn1c(-c2ccc(NC(=O)NCCc3ccccc3)cc2)c(C#N)c2ccc(OCCOC)cc21 [Compound 1403] | 168 to 171

Row | Compound | melting point [°C]
47 | CCn1c(-c2ccc(NC(=O)NC(C)C)cc2)c(C#N)c2ccc(OCCOC)cc21 [Compound 1405] | 182 to 185
48 | CCn1c(-c2ccc(NC(=O)OC(C)C)cc2)c(C#N)c2ccc(OCCOC)cc21 [Compound 1406] | 141 to 144
49 | CCn1c(-c2ccc(NC(=O)OC3CCCC3)cc2)c(C#N)c2ccc(OCCOC)cc21 [Compound 1407] | 137 to 140
50 | CCOc1ccc2c(C#N)c(-c3ccc(NC(=O)NCCCOC)cc3)n(C3CCC3)c2c1 [Compound 1409] | 152 to 155
51 | CCCS(=O)(=O)Nc1ccc(-c2c(C#N)c3ccc(N4CCN(CC5CC5)CC4)cc3n2CC)cc1 [Compound 1411] | 173 to 174
52 | CCn1c(-c2ccc(NC(=O)C3CC3)cc2)c(C#N)c2ccc(OCCN(C)CCN(C)C)cc21 [Compound 1413] | 90.2 to 95.4
53 | CCn1c(-c2ccc(NC(=O)C3CC3)cc2)c(C#N)c2ccc(OCCN3CCN(CCOC)CC3)cc21 [Compound 1414] | 163.9 to 168.8
54 | CCCNC(=O)Nc1ccc(-c2c(C#N)c3ccc(OCc4csc(C)n4)cc3n2CC)cc1 [Compound 1415] | 220 to 222
55 | COCCOc1ccc2c(C#N)c(-c3ccc(NS(=O)(=O)C4CC4)cc3)n(C3CCC3)c2c1 [Compound 1417] | 192 to 193
56 | CC(C)OC(=O)Nc1ccc(-c2c(C#N)c3ccc(OCC(O)CN4CCOCC4)cc3n2C2CCC2)cc1 (stereo not drawn) [Compound 1418] | 183 to 185
57 | CC(C)NC(=O)Nc1ccc(-c2c(C#N)c3ccc(OCC(O)Cn4ccnc4)cc3n2C2CCC2)cc1 (stereo not drawn) [Compound 1421] | 138 to 140
58 | CCOc1ccc2c(C#N)c(-c3ccc(NC(=O)OCc4cnccn4)cc3)n(C3CCC3)c2c1 [Compound 1426] | 159 to 164
59 | CC(C)OC(=O)Nc1ccc(-c2c(C#N)c3ccc(OCCCNC4CC4)cc3n2C2CCC2)cc1 [Compound 1430] | 122 to 125
60 | CCOc1ccc2c(C#N)c(-c3ccc(NC(=O)OCc4cccnc4)cc3)n(C3CCC3)c2c1 [Compound 1432] | 187 to 194
61 | CC(C)OC(=O)Nc1ccc(-c2c(C#N)c3ccc(OCCNC4CCC4)cc3n2C2CCC2)cc1 [Compound 1434] | 221 to 223
62 | CC(C)OC(=O)Nc1ccc(-c2c(C#N)c3ccc(OCCN4CCC(O)C4)cc3n2C2CCC2)cc1 (stereo not drawn) [Compound 1435] | 161 to 165
63 | COCCOc1ccc2c(C#N)c(-c3ccc(NC(=O)OC(c4ccccc4)C4CC4)cc3)n(C3CC3)c2c1 (stereo not drawn) [Compound 1437] | 74 to 76
64 | COCCOc1ccc2c(C#N)c(-c3ccc(NC(=O)OC(C)c4ccccc4)cc3)n(C3CC3)c2c1 (stereo not drawn) [Compound 1438] | 76 to 79
65 | COCCOc1ccc2c(C#N)c(-c3ccc(NC(=O)OC(C)c4ccc(F)cc4)cc3)n(C3CC3)c2c1 (stereo not drawn) [Compound 1439] | 74 to 76
66 | CCOc1ccc2c(C#N)c(-c3ccc(NC(=O)NC(C)COC)cc3)n(C3CCC3)c2c1 (stereo not drawn) [Compound 1441] | 192 to 196
67 | CC(C)OC(=O)Nc1ccc(-c2c(C#N)c3ccc(OC4CCN(Cc5ccccc5)C4)cc3n2C2CCC2)cc1 (stereo not drawn) [Compound 1442] | 144 to 145
68 | N#Cc1c(-c2ccc(N)cc2)n(C2CC2)c2cc(OC3CCOC3)ccc12 (stereo not drawn) [Compound 1443] | 199 to 201
69 | CC(OC(=O)Nc1ccc(-c2c(C#N)c3ccc(OC4CCOC4)cc3n2C2CC2)cc1)c1ccccc1 (stereo not drawn) [Compound 1445] | 112 to 115
